{"source": "ChEMBL document CHEMBL1140199", "about": "“Synthesis and antimicrobial activity of 2-alkenylchroman-4-ones, 2-alkenylthiochroman-4-ones and 2-alkenylquinol-4-ones” (2008)", "format_in_all_cases": "functional", "key": {"Escherichia coli": {"system": "Escherichia coli", "experiment": "Antimicrobial activity against Escherichia coli ATCC 11229; on IZ: test concentration or dose not given here"}, "Staphylococcus aureus": {"system": "Staphylococcus aureus", "experiment": "Antimicrobial activity against Staphylococcus aureus ATCC 6538; on IZ: test concentration or dose not given here", "details": "for MIC: Staphylococcus aureus, ATCC 6538"}, "Bacillus subtilis": {"system": "Bacillus subtilis", "experiment": "Antimicrobial activity against Bacillus subtilis ATCC 6051; on IZ: test concentration or dose not given here"}, "Candida maltosa": {"system": "Candida maltosa", "experiment": "Antimicrobial activity against Candida maltosa; on IZ: test concentration or dose not given here"}}, "note": "Calls of active or inactive are those of the source. The calls are words filed in the database; no cut-off is given here."}
{"compound": "C=CC1CC(=O)c2cc(Cl)ccc2O1", "note": "(stereo not given)", "values": [{"measurement": "inhibition zone (IZ)", "setting": "Escherichia coli", "value": 17, "unit": "mm"}, {"measurement": "MIC", "setting": "Escherichia coli; Escherichia coli, ATCC 11229", "value": 4.17, "unit": "µg/mL"}, {"measurement": "inhibition zone (IZ)", "setting": "Staphylococcus aureus", "value": 40, "unit": "mm"}, {"measurement": "MIC", "setting": "Staphylococcus aureus", "value": 7.3, "unit": "µg/mL"}, {"measurement": "inhibition zone (IZ)", "setting": "Bacillus subtilis", "value": 29, "unit": "mm"}, {"measurement": "MIC", "setting": "Bacillus subtilis; Bacillus subtilis, ATCC 6051", "value": 4.17, "unit": "µg/mL"}, {"measurement": "inhibition zone (IZ)", "setting": "Candida maltosa", "value": 40, "unit": "mm"}]}
{"compound": "C/C=C(\\C)C1CC(=O)c2cc(Cl)ccc2O1", "note": "(stereo not given)", "values": [{"measurement": "Activity", "setting": "Escherichia coli", "value": "inactive"}, {"measurement": "Activity", "setting": "Staphylococcus aureus", "value": "inactive"}, {"measurement": "Activity", "setting": "Bacillus subtilis", "value": "inactive"}, {"measurement": "Activity", "setting": "Candida maltosa", "value": "inactive"}]}
{"compound": "C=CC1CC(=O)c2cc(Br)ccc2N1C(=O)OC", "note": "(stereo not given)", "values": [{"measurement": "Activity", "setting": "Escherichia coli", "value": "inactive"}, {"measurement": "Activity", "setting": "Staphylococcus aureus", "value": "inactive"}, {"measurement": "Activity", "setting": "Bacillus subtilis", "value": "inactive"}, {"measurement": "Activity", "setting": "Candida maltosa", "value": "inactive"}]}
{"compound": "NYSTATIN", "values": [{"measurement": "inhibition zone (IZ)", "setting": "Candida maltosa", "value": 28, "unit": "mm"}]}
{"compound": "C/C=C/C1CC(=O)c2cc(Br)ccc2O1", "note": "(stereo not given)", "values": [{"measurement": "inhibition zone (IZ)", "setting": "Escherichia coli", "value": 9, "unit": "mm"}, {"measurement": "Activity", "setting": "Staphylococcus aureus", "value": "inactive"}, {"measurement": "Activity", "setting": "Bacillus subtilis", "value": "inactive"}, {"measurement": "Activity", "setting": "Candida maltosa", "value": "inactive"}]}
{"compound": "C=CC1CC(=O)c2ccccc2S1", "note": "(stereo not given)", "values": [{"measurement": "Activity", "setting": "Escherichia coli", "value": "inactive"}, {"measurement": "Activity", "setting": "Staphylococcus aureus", "value": "inactive"}, {"measurement": "Activity", "setting": "Bacillus subtilis", "value": "inactive"}, {"measurement": "inhibition zone (IZ)", "setting": "Candida maltosa", "value": 6, "unit": "mm"}]}
{"compound": "C=C(C)C1CC(=O)c2cc(Cl)ccc2N1C(=O)OC", "note": "(stereo not given)", "values": [{"measurement": "Activity", "setting": "Escherichia coli", "value": "inactive"}, {"measurement": "Activity", "setting": "Staphylococcus aureus", "value": "inactive"}, {"measurement": "Activity", "setting": "Bacillus subtilis", "value": "inactive"}, {"measurement": "Activity", "setting": "Candida maltosa", "value": "inactive"}]}
{"compound": "CC1(C)S[C@@H]2[C@H](NC(=O)[C@H](N)c3ccccc3)C(=O)N2[C@H]1C(=O)O", "note": "[AMPICILLIN]", "values": [{"measurement": "inhibition zone (IZ)", "setting": "Escherichia coli", "value": 19, "unit": "mm"}, {"measurement": "inhibition zone (IZ)", "setting": "Staphylococcus aureus", "value": 27, "unit": "mm"}, {"measurement": "inhibition zone (IZ)", "setting": "Bacillus subtilis", "value": 25, "unit": "mm"}]}
{"compound": "C=C(C)C1CC(=O)c2cc(Cl)ccc2O1", "note": "(stereo not given)", "values": [{"measurement": "inhibition zone (IZ)", "setting": "Escherichia coli", "value": 9, "unit": "mm"}, {"measurement": "inhibition zone (IZ)", "setting": "Staphylococcus aureus", "value": 17, "unit": "mm"}, {"measurement": "Activity", "setting": "Bacillus subtilis", "value": "inactive"}, {"measurement": "Activity", "setting": "Candida maltosa", "value": "inactive"}]}
{"compound": "C/C=C(\\C)C1CC(=O)c2cc(Br)ccc2O1", "note": "(stereo not given)", "values": [{"measurement": "Activity", "setting": "Escherichia coli", "value": "inactive"}, {"measurement": "Activity", "setting": "Staphylococcus aureus", "value": "inactive"}, {"measurement": "Activity", "setting": "Bacillus subtilis", "value": "inactive"}, {"measurement": "Activity", "setting": "Candida maltosa", "value": "inactive"}]}
{"compound": "C=CC1CC(=O)c2c(Cl)cc(Cl)cc2N1C(=O)OC", "note": "(stereo not given)", "values": [{"measurement": "Activity", "setting": "Escherichia coli", "value": "inactive"}, {"measurement": "Activity", "setting": "Staphylococcus aureus", "value": "inactive"}, {"measurement": "Activity", "setting": "Bacillus subtilis", "value": "inactive"}, {"measurement": "Activity", "setting": "Candida maltosa", "value": "inactive"}]}
{"compound": "C=CC1CC(=O)c2cc(Cl)ccc2N1C(=O)OC", "note": "(stereo not given)", "values": [{"measurement": "Activity", "setting": "Escherichia coli", "value": "inactive"}, {"measurement": "Activity", "setting": "Staphylococcus aureus", "value": "inactive"}, {"measurement": "Activity", "setting": "Bacillus subtilis", "value": "inactive"}, {"measurement": "Activity", "setting": "Candida maltosa", "value": "inactive"}]}
{"compound": "C=C(C)C1CC(=O)c2cc(Br)ccc2O1", "note": "(stereo not given)", "values": [{"measurement": "inhibition zone (IZ)", "setting": "Escherichia coli", "value": 8, "unit": "mm"}, {"measurement": "inhibition zone (IZ)", "setting": "Staphylococcus aureus", "value": 16, "unit": "mm"}, {"measurement": "Activity", "setting": "Bacillus subtilis", "value": "inactive"}, {"measurement": "Activity", "setting": "Candida maltosa", "value": "inactive"}]}
{"compound": "C=C(C)C1CC(=O)c2cc(Cl)ccc2S1", "note": "(stereo not given)", "values": [{"measurement": "Activity", "setting": "Escherichia coli", "value": "inactive"}, {"measurement": "Activity", "setting": "Staphylococcus aureus", "value": "inactive"}, {"measurement": "Activity", "setting": "Bacillus subtilis", "value": "inactive"}, {"measurement": "Activity", "setting": "Candida maltosa", "value": "inactive"}]}
{"compound": "C=CC1CC(=O)c2cc(Br)ccc2O1", "note": "(stereo not given)", "values": [{"measurement": "MIC", "setting": "Staphylococcus aureus", "value": 5.62, "unit": "µg/mL"}]}
{"compound": "C=CC1CC(=O)c2cc(F)ccc2N1C(=O)OC", "note": "(stereo not given)", "values": [{"measurement": "Activity", "setting": "Escherichia coli", "value": "inactive"}, {"measurement": "Activity", "setting": "Staphylococcus aureus", "value": "inactive"}, {"measurement": "Activity", "setting": "Bacillus subtilis", "value": "inactive"}, {"measurement": "Activity", "setting": "Candida maltosa", "value": "inactive"}]}
{"compound": "C/C=C/C1CC(=O)c2cc(Cl)ccc2O1", "note": "(stereo not given)", "values": [{"measurement": "inhibition zone (IZ)", "setting": "Escherichia coli", "value": 10, "unit": "mm"}, {"measurement": "Activity", "setting": "Staphylococcus aureus", "value": "inactive"}, {"measurement": "Activity", "setting": "Bacillus subtilis", "value": "inactive"}, {"measurement": "Activity", "setting": "Candida maltosa", "value": "inactive"}]}
{"compound": "C=C(C)C1CC(=O)c2ccccc2O1", "note": "(stereo not given)", "values": [{"measurement": "inhibition zone (IZ)", "setting": "Escherichia coli", "value": 10, "unit": "mm"}, {"measurement": "Activity", "setting": "Staphylococcus aureus", "value": "inactive"}, {"measurement": "Activity", "setting": "Bacillus subtilis", "value": "inactive"}, {"measurement": "Activity", "setting": "Candida maltosa", "value": "inactive"}]}
{"compound": "C=CC1CC(=O)c2ccccc2O1", "note": "(stereo not given)", "values": [{"measurement": "Activity", "setting": "Escherichia coli", "value": "inactive"}, {"measurement": "Activity", "setting": "Staphylococcus aureus", "value": "inactive"}, {"measurement": "Activity", "setting": "Bacillus subtilis", "value": "inactive"}, {"measurement": "Activity", "setting": "Candida maltosa", "value": "inactive"}]}
{"compound": "C=CC1CC(=O)c2cc(Cl)ccc2S1", "note": "(stereo not given)", "values": [{"measurement": "Activity", "setting": "Escherichia coli", "value": "inactive"}, {"measurement": "Activity", "setting": "Staphylococcus aureus", "value": "inactive"}, {"measurement": "Activity", "setting": "Bacillus subtilis", "value": "inactive"}, {"measurement": "inhibition zone (IZ)", "setting": "Candida maltosa", "value": 6, "unit": "mm"}]}
{"compound": "C=C(C)C1CC(=O)c2ccccc2S1", "note": "(stereo not given)", "values": [{"measurement": "Activity", "setting": "Escherichia coli", "value": "inactive"}, {"measurement": "Activity", "setting": "Staphylococcus aureus", "value": "inactive"}, {"measurement": "Activity", "setting": "Bacillus subtilis", "value": "inactive"}, {"measurement": "Activity", "setting": "Candida maltosa", "value": "inactive"}]}
